Among the data in the supplement of paper PMC10307832 are relative viability values, retold here.

What all share (assay): relative viability (nuclei count vs DMSO), 5 days (fraction); higher = more cells survive
Compound in the assay “ALW-II-49-7 + Luminespib”: Cc1ccc(C(=O)Nc2cccc(C(F)(F)F)c2)cc1Nc1cncc(C(N)=O)c1 [ALW-II-49-7] + CCNC(=O)c1noc(-c2cc(C(C)C)c(O)cc2O)c1-c1ccc(CN2CCOCC2)cc1 [Luminespib] (partner 0.01 µM)
The essentials: (§1)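 Cells from lung cancer lines were seeded into 1536-well plates and, one day later, dosed by pin tool. Treatments were either a single drug or a fixed dose of an anchor drug with five library-drug doses (not always all listed) in √10 steps. After 5 days, nuclei were stained in a one-step fixation (final 0.05% Triton X-100, 1% formaldehyde, 1 ug/ml Hoechst) and counted on 4× images, and relative viability is the treated-to-vehicle nuclei ratio, as the median of duplicate plates.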

Compound in the assay “Dasatinib + Bortezomib”: Cc1nc(Nc2ncc(C(=O)Nc3c(C)cccc3Cl)s2)cc(N2CCN(CCO)CC2)n1 [Dasatinib] + CC(C)C[C@H](NC(=O)[C@H](Cc1ccccc1)NC(=O)c1cnccn1)B(O)O [Bortezomib] (partner 0.002 µM)
The essentials:
as §1

Compound in the assay “Dasatinib + Pemetrexed”: Cc1nc(Nc2ncc(C(=O)Nc3c(C)cccc3Cl)s2)cc(N2CCN(CCO)CC2)n1 [Dasatinib] + Nc1nc2[nH]cc(CCc3ccc(C(=O)N[C@@H](CCC(=O)O)C(=O)O)cc3)c2c(=O)[nH]1 [Pemetrexed] (partner 0.2 µM)
The essentials:
as §1

Compound in the assay “Dasatinib + Pictilisib”: Cc1nc(Nc2ncc(C(=O)Nc3c(C)cccc3Cl)s2)cc(N2CCN(CCO)CC2)n1 [Dasatinib] + CS(=O)(=O)N1CCN(Cc2cc3nc(-c4cccc5[nH]ncc45)nc(N4CCOCC4)c3s2)CC1 [Pictilisib] (partner 1 µM)
The essentials:
as §1

Take UMC-11: the relative viability with ALW-II-49-7 + Luminespib (first compound 0.08 µM) stood at 1.19; with ALW-II-49-7 + Luminespib (first compound 0.253 µM), 0.939; in the assay with ALW-II-49-7 + Luminespib (first compound 0.8 µM), 1.14; with ALW-II-49-7 + Luminespib (first compound 2.53 µM), 0.983; with ALW-II-49-7 + Luminespib (first compound 8 µM), 1; in the assay with Dasatinib + Bortezomib (first compound 0.005 µM), 0.668. Moreover, the relative viability with Dasatinib + Bortezomib (first compound 0.01581 µM) worked out at 0.688; with Dasatinib + Bortezomib (first compound 0.05 µM), 0.806; with Dasatinib + Bortezomib (first compound 0.1581 µM), 0.313; in the assay with Dasatinib + Bortezomib (first compound 0.5 µM), 0.291; with Dasatinib + Pemetrexed (first compound 0.005 µM), 0.736; in the assay with Dasatinib + Pemetrexed (first compound 0.01581 µM), 0.656. The relative viability was 0.593 in the assay with Dasatinib + Pemetrexed (first compound 0.05 µM); 0.469 in the assay with Dasatinib + Pemetrexed (first compound 0.1581 µM); 0.391 with Dasatinib + Pemetrexed (first compound 0.5 µM); 0.735 with Dasatinib + Pictilisib (first compound 0.005 µM); 0.64 with Dasatinib + Pictilisib (first compound 0.01581 µM); 0.49 with Dasatinib + Pictilisib (first compound 0.05 µM). Besides, the relative viability in the assay with Dasatinib + Pictilisib (first compound 0.1581 µM) and with Dasatinib + Pictilisib (first compound 0.5 µM) was 0.288 in each case.
